Laboratory results published in article PMC7912881, “Polyhydroxy p-Terphenyls from a Mangrove Endophytic Fungus Aspergillus candidus LDJ-5” (Marine Drugs, 2021).
≈ marks a conversion by molar mass, not a printed value. Like-named read-outs stand apart in the source and are kept apart here.

Legend:
Bacillus cereus = experiment: Antimicrobial activity, agar dilution method; format: cell-based
Method: (§1) All p-terphenyls (1–7) were tested for their cytotoxicity against the L-02, MGC-803, HCT-116, BEL-7402, A549, SH-SY5Y, Hela, U87, K562, HL-60, HO8910, and MCF-7 cell lines using either the SRB or the MTT method with adriamycin as positive control. […] Recently, we have also reported nine prenylated p-terphenyls from Aspergillus candidus LDJ-5 [6]. Most of the prenylated p-terphenyls were cytotoxic. Additionally, comparing to prenylcandidusin B and prenylcandidusin C, compounds 2 and 3 were distinguished by the presence of one hydroxy group and the lack of the isoprenyl group on ring C (C-3″). […] The antimicrobial activities of compounds 1–7 were evaluated in vitro against Proteus species, Pseudomonas aeruginosa, Bacillus subtilis, B. cereus, and Mycobacterium phlei. […] Asperterphenyllin A (1) was also tested for antiviral activity and protein tyrosine phosphatase 1B (PTP1B) inhibitory activity. The antiviral activity of asperterphenyllin A (1) was evaluated against the influenza A virus (H1N1) using the cytopathic effect (CPE) inhibition assay. […] Protein tyrosine phosphatase 1B (PTP1B) has been reported to be a novel drug target for diabetes and obesity. It has also been considered to be involved in tumorigenesis.
(§2) Antimicrobial activities were evaluated as previously reported by using the agar dilution method. The five microbial strains included Proteus sp., Pseudomonas aeruginosa, Bacillus subtilis, B. cereus, and Mycobacterium phlei. Ciprofloxacin was used as positive control. All strains were donated by the Qingdao municipal hospital.

Proteus species = experiment: Antimicrobial activity, agar dilution method; format: cell-based
Method: as §1, §2

Bacillus subtilis = experiment: Antimicrobial activity, agar dilution method; format: cell-based
Method: as §1, §2

Pseudomonas aeruginosa = experiment: Antimicrobial activity, agar dilution method; format: cell-based
Method: as §1, §2

Mycobacterium phlei = experiment: Antimicrobial activity, agar dilution method; format: cell-based; settings: Mycolicibacterium phlei
Method: as §1, §2

influenza A virus (H1N1) = experiment: Anti-influenza A viral (H1N1) CPE inhibition assay; format: cell-based
Method: as §1
The antiviral activity of compound 1 against influenza A virus (H1N1) was evaluated by the CPE inhibition assay. […]

[1] = system: L-02, MGC-803, HCT-116, BEL-7402, A549, SH-SY5Y, Hela, U87, K562, HL-60, HO8910, and MCF-7 cell lines; experiment: Cytotoxicity against the panel of cell lines (SRB or MTT method); format: cell-based, human; settings: for IC50: Homo sapiens; for cytotoxicity effects: compared with prenylcandidusins on K562
Method: as §1
(§3) The cytotoxicity of 1–7 and positive control was evaluated against human leukemia cell lines K562 and HL-60 (using the MTT method), human normal liver cell line L-02, human gastric cancer cell lines MGC-803, human colon cancer lines HCT-116, human hepatocacinoma cell line BEL-7402, human lung cancer cell lines A549, human neuroblastoma cell line SH-SY5Y, human cervical cancer cell lines HeLa, human glioma cell lines U87, human ovarian cancer cell lines HO-8910, and human breast cancer cell lines MCF-7 (using the SRB method). Adriamycin was used as positive control. The detailed methodologies for biological testing have been described in previous reports. All the cell lines were purchased from the Institute of Biochemistry and Cell Biology, Chinese Academy of Sciences (Shanghai, China).

[2] = target: T1, protein tyrosine phosphatase 1B (PTP1B) (Homo sapiens, UniProt P18031); experiment: PTP1B inhibitory assay (pNPP hydrolysis); format: biochemical; settings: pNPP substrate, room temperature
T1 sequence (P18031 1-435): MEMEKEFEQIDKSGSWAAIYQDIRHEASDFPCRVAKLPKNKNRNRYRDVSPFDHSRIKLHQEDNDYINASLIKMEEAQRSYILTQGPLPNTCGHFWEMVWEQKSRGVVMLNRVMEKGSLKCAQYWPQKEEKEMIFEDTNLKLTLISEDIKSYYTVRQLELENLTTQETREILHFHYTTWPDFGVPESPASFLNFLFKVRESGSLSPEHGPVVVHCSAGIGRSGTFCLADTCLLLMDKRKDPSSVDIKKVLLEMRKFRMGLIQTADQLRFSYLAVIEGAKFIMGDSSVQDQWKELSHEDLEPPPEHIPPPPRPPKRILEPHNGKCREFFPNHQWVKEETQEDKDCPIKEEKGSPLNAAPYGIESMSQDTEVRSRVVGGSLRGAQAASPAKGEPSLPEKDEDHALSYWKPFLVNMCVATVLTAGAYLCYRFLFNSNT

Cytotoxicity, SRB method = format: cell-based; settings: L-02 normal liver cells, L-02 human normal liver cell line
Method: as §1, §3

SH-SY5Y cell line = experiment: Cytotoxicity, SRB method; format: cell-based; settings: SH-SY5Y human neuroblastoma cell line
Method: as §1, §3

U87 cell line = experiment: Cytotoxicity, SRB method; format: cell-based; settings: U-87 MG, U87 human glioma cell line
Method: as §1, §3

MGC-803 cell line = experiment: Cytotoxicity, SRB method; format: cell-based; settings: MGC-803 human gastric cancer cell line
Method: as §1, §3

HO8910 cell line = experiment: Cytotoxicity, SRB method; format: cell-based; settings: HO-8910, HO8910 human ovarian cancer cell line
Method: as §1, §3

HCT-116 cell line = experiment: Cytotoxicity, SRB method; format: cell-based; settings: HCT-116 human colon cancer cell line
Method: as §1, §3

Hela cell line = experiment: Cytotoxicity, SRB method; format: cell-based; settings: Hela human cervical cancer cell line
Method: as §1, §3

BEL-7402 cell line = experiment: Cytotoxicity, SRB method; format: cell-based; settings: BEL-7402 human hepatocarcinoma cell line
Method: as §1, §3

A549 cell line = experiment: Cytotoxicity, SRB method; format: cell-based; settings: A549 human lung cancer cell line
Method: as §1, §3

K562 cell lines = system: K562 cell lines; design: method as in PMID 31827255; settings: cited from earlier work
[3] = all twelve tested cell lines, SRB or MTT, read-out: IC50 against all tested cell lines

SMILES | MIC (Bacillus cereus) | MIC (Proteus species) | MIC (Bacillus subtilis) | MIC (Pseudomonas aeruginosa) | MIC (Mycobacterium phlei) | IC50 [1, 3] | also measured
O=C(O)c1cn(C2CC2)c2cc(N3CCNCC3)c(F)cc2c1=O [Ciprofloxacin, reference compound] | 2.07 µg/mL (≈ 6.25 µM) | 0.26 µg/mL (≈ 0.785 µM) | 4.14 µg/mL (≈ 12.5 µM) | 0.52 µg/mL (≈ 1.57 µM) | 0.52 µg/mL (≈ 1.57 µM) |  | 
COc1c(-c2ccc(O)c(O)c2)cc(OC)c2c1oc1c(-c3c(O)c(O)cc4c3oc3c(OC)c(-c5ccc(O)c(O)c5)cc(OC)c34)c(O)c(O)cc12 [Compound 1, Asperterphenyllin A] | > 200 µg/mL | > 200 µg/mL | > 200 µg/mL | > 200 µg/mL | > 200 µg/mL | > 50000 nM | IC50 (influenza A virus (H1N1); H1N1, CPE inhibition assay, read-out: IC50 anti-influenza virus A (H1N1) activity): 53000 nM; IC50 [2]: 21000 nM
COc1cc2oc3c(OC)c(-c4ccc(O)c(O)c4)cc(OC)c3c2cc1OC [Compound 2, Asperterphenyllin B] | > 200 µg/mL | > 200 µg/mL | > 200 µg/mL | 40 µg/mL (≈ 101 µM) | 79 µg/mL (≈ 199 µM) | > 50000 nM | cytotoxicity effects [1]: did not show any cytotoxicity effects
COc1cc2oc3c(OC)c(-c4ccc(O)c(O)c4)cc(OC)c3c2cc1O [Compound 3, Asperterphenyllin C] | > 200 µg/mL | 19 µg/mL (≈ 49.7 µM) | 38 µg/mL (≈ 99.4 µM) | > 200 µg/mL | 38 µg/mL (≈ 99.4 µM) | > 50000 nM | cytotoxicity effects [1]: did not show any cytotoxicity effects
COc1cc(-c2ccc(O)cc2)c(OC)c(OC)c1-c1ccc(O)c(O)c1 [Compound 4, Asperterphenyllin D] | 70 µg/mL (≈ 190 µM) | > 200 µg/mL | > 200 µg/mL | > 200 µg/mL | > 200 µg/mL | > 50000 nM | 
COc1cc(-c2c(OC)cc(-c3ccccc3)c(OC)c2O)ccc1O [Compound 5, Asperterphenyllin E] | 70 µg/mL (≈ 199 µM) | 35 µg/mL (≈ 99.3 µM) | 70 µg/mL (≈ 199 µM) | 70 µg/mL (≈ 199 µM) | 70 µg/mL (≈ 199 µM) | > 50000 nM | 
COc1cc(-c2ccc(O)c(O)c2)c(OC)c(O)c1-c1ccccc1 [Compound 6, Asperterphenyllin F] | > 200 µg/mL | > 200 µg/mL | > 200 µg/mL | > 200 µg/mL | > 200 µg/mL | > 50000 nM | 
COc1cc(-c2ccc(O)cc2)c(OC)c(O)c1-c1ccc(OC/C=C(\C)CO)c(O)c1 [Compound 7, Asperterphenyllin G] | 87 µg/mL (≈ 198 µM) | > 200 µg/mL | > 200 µg/mL | > 200 µg/mL | > 200 µg/mL |  | IC50 ([1]; read-out: IC50 values against nine cell lines (range)): 400 to 1700 nM; IC50 (Cytotoxicity, SRB method): 1700 nM; IC50 (SH-SY5Y cell line): 600 nM; IC50 (U87 cell line): 900 nM; IC50 (MGC-803 cell line): 1000 nM; IC50 (HO8910 cell line): 1300 nM; IC50 (HCT-116 cell line): 800 nM; IC50 (Hela cell line): 1700 nM; IC50 (BEL-7402 cell line): 6000 nM; IC50 (A549 cell line): 400 nM
COc1cc2oc3c(OC)c(-c4ccc(O)c(CC=C(C)C)c4)cc(OC)c3c2cc1OC [Prenylcandidusin B] |  |  |  |  |  |  | inhibitory activity against K562 cell lines (K562 cell lines): moderate inhibitory activity
COc1cc2oc3c(OC)c(-c4ccc(O)c(CC=C(C)C)c4)cc(OC)c3c2cc1O [prenylcandidusin C] |  |  |  |  |  |  | inhibitory activity against K562 cell lines (K562 cell lines): moderate inhibitory activity
NC(=O)c1ncn([C@@H]2O[C@H](CO)[C@@H](O)[C@H]2O)n1 [ribavirin, reference compound] |  |  |  |  |  |  | IC50 (influenza A virus (H1N1); H1N1, read-out: IC50 anti-influenza virus A (H1N1) activity): 35000 nM
